Results taken from patent US5043332A, “Novel 11β-substituted -19-nor-steriods” (priority 1981, dated 1991).
Read-outs that look alike come from different tables or passages of the source.

Key:
[1] = target: T1, Estrogen receptor of uterus of mice (Mus musculus, UniProt P19785); assay: Estrogen receptor binding (displacement of tritiated estradiol)
T1 construct: the uterus were removed and homogenized at 0° C; from tissue; host or cells: mouse uterus, 105,000 g supernatant (immature females 18 to 21 days old)
T1 sequence (P19785 1-599): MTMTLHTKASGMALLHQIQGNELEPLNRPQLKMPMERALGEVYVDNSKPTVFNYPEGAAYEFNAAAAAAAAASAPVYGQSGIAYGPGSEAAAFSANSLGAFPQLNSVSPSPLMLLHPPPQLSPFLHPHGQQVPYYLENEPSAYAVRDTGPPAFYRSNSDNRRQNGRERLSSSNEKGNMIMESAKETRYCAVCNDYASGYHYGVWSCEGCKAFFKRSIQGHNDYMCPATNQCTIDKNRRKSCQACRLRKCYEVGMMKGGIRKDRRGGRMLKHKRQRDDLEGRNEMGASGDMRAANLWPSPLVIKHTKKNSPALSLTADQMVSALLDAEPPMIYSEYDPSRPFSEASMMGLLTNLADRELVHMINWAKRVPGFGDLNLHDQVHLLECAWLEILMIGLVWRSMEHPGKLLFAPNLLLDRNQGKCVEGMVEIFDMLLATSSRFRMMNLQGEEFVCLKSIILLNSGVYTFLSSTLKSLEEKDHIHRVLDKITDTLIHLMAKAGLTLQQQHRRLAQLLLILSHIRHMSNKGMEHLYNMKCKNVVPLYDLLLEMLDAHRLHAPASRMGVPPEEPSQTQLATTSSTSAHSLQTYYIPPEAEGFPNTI
Experimental: E. Estrogen receptor of uterus of mice
Immature female mice 18 to 21 days old were killed and the uterus were removed and homogenized at 0° C. with a polytetrafluoroethylene-glass Potter in a buffered TS solution consisting of 10 mM, Tris, 0125M Saccharose, HCl for a pH of 7.4 at a rate of 1 g of tissue per 25 ml of TS. The homogenate was then ultracentrigued at 105,000 g for 90 minutes at 0° C. and aliquoits of the resulting […] were incubated at 0° C. for a time (t) with a constant concentration (T) of tritiated estradiol in the presence of increasing concentrations (0 to 1000×10^-9 M) of either cold estradiol or cold test compound. The concentration of tied tritiated estradiol (B) was measured for each incubate by the technique of adsorption on carbon-dextran.
The calculation of the relative affinity of […] (ARL) was identical for all of the above receptor tests. One traced the following two curves: the percentage of tied tritiated hormone B/T as a function of the logarithm of the cold hormone concentration and B/T as a function of the logarithm of the concentration of the cold test product. One determined the line of the equation. [formula]
The intersection of the I50 line and the curves permits one to determine the concentrations of the cold hormone of the reference (CH) and the cold test compound (CX) which inhibit by 50% the tieing of tritiated hormone with the receptor. The relative affinity of tieing (ARL) of the test product was determined by the equation: [formula]

[2] = tested on: thymocytes of surrenalectomized rats; assay: Antiglucocorticoidal activity, incorporation of tritiated uridine in thymocytes; format: cell-based; settings: for % inhibition of effect of Dexamethasone (symbol) / inhibition at 1 µM / % of inhibition of effect of Dexamethasone (symbol): 5 × 10^-8 M dexamethasone + test product 10^-6 M; for inhibition at 0.1 µM / inhibition at 0.01 µM / inhibition at 1 µM: Rattus norvegicus, Thymocyte; for inhibition at 0.1 µM: 5 × 10^-8 M dexamethasone + test product 10^-7 M; for inhibition at 0.01 µM: 5 × 10^-8 M dexamethasone + test product 10^-8 M; for opposition to the effect of dexamethasone on tritiated uridine incorporation (in words): with 5×10^-8 M dexamethasone
Experimental: III. Antiglucocorticoidal Activity
The test used was that of Dausse et al [Molecular Pharmacology, Vol. 13 (1977), p. 948-955] entitled "The relationship between glucocorticoid structure and effects upon thymocytes" for […] thymocytes. The thymocytes of surrenalectomized rats were incubated at 37° C. for 3 hours in a nutritive medium containing 5×10^-8 M of dexamethasone in the presence or absence of the test compound at different concentrations. Tritiated uridine was added and incubation was continued for one hour. The incubates were cooled and treated with a 5% trifluoroacetic acid solution and the mixture was filtered with Whatman GF/A paper. The filter was washed 3 times with a 5% trifluoroacetic acid solution and retained radioactivity on the filter was determined.

[3] = read-out: % inhibition of effect of Dexamethasone
[4] = second table, incubation 2 H at 0° C.
[5] = second table, read-out: % of inhibition of effect of Dexamethasone

Row | Structure (SMILES) | relative affinity of tieing (ARL), Estrogen ([1]; incubation 2 H at 0° C.) | relative affinity of tieing (ARL), Estrogen ([1]; incubation 5 H (25° C.)) | relative affinity of tieing (ARL), Estrogen [1, 4] | inhibition at 0.1 µM [2, 3] | inhibition at 0.01 µM [2, 3] | opposition to the effect of dexamethasone on tritiated uridine incorporation (in words) [2] | also measured
1 | CC#C[C@]1(OC(C)=O)CC[C@H]2[C@@H]3CCc4cc(O)ccc4[C@H]3[C@@H](c3ccc(N(C)C)cc3)C[C@@]21C [2 (17 OAc), 11β-(4-dimethylaminophenyl)-17α-(prop-1-ynyl)-17β-acetoxy-Δ^1,3,5(10) -estratriene-3-ol] | < 0,1 | 0,1 |  | 76% | 24% |  | % inhibition of effect of Dexamethasone (symbol) [2]: * (A dose of 10^-6 M inhibited the effect of dexamethasone totally)
2 | CC#C[C@]1(O)CC[C@H]2[C@@H]3CCC4=CC(=O)[C@H](C)CC4=C3[C@@H](c3ccc(N(C)C)cc3)C[C@@]21C [Example 5, 2α-methyl-11β-(4-dimethylaminophenyl)-17α-(prop-1-ynyl)-Δ^4,9-estradiene-17β-ol-3-one] |  |  |  |  |  | opposed this effect | 
3 | CC#C[C@]1(O)CC[C@H]2[C@@H]3CCC4=C(CCC(=O)C4)[C@H]3[C@@H](c3ccc(N(C)C)cc3)C[C@@]21C [Example 10, 11β-(4-dimethylaminophenyl)-17α-(prop-1-ynyl)-Δ^5(10) -estrene-17β-ol-3-one] | < 0,1 | < 0,1 |  | 23% | 0% | opposed this effect | % inhibition of effect of Dexamethasone (symbol) [2]: * (A dose of 10^-6 M inhibited the effect of dexamethasone totally)
4 | C#C[C@@]1(O)CC[C@H]2[C@@H]3CCC4=CC(=O)CCC4=C3[C@@H](c3ccc(N(C)C)cc3)C[C@@]21C [Example 21, 11β-[4-(N,N-dimethylamino)-phenyl]-17β-ethynyl-Δ^4,9-estradiene-17α-ol-3-one] |  |  | 0 |  |  | opposed this effect | inhibition at 1 µM [2, 5]: 83%; inhibition at 0.1 µM [2, 5]: 15%; inhibition at 0.01 µM [2, 5]: 5%
5 | C=C(C)C#C[C@]1(O)CC[C@H]2[C@@H]3CCC4=CC(=O)CCC4=C3[C@@H](c3ccc(N(C)C)cc3)C[C@@]21C [Example 23, 11β-[4-(N,N-dimethylamino)-phenyl]-23-methyl-19,21-dinor-17α-Δ^4,9,23-cholatriene-20-yn-17β-ol-3-one] |  |  | 0 |  |  | opposed this effect | inhibition at 0.1 µM [2, 5]: 53%; inhibition at 0.01 µM [2, 5]: 22%; % of inhibition of effect of Dexamethasone (symbol) ([2]; second table): * (A dose of 10^-6 M inhibited totally the effect of dexamethasone)
6 | C[C@]12C[C@H](c3ccc([N+](C)(C)[O-])cc3)C3=C4CCC(=O)C=C4CC[C@H]3[C@@H]1CC[C@@]2(O)C#CCl [Example 26, N-oxide of 11β-[4-(N,N-dimethylamino)-phenyl]-21-chloro-19-nor-17α-Δ^4,9-pregnadiene-20-yne-17β-ol-3-one] |  |  | 0 |  |  | opposed this effect | inhibition at 1 µM [2, 5]: 75%; inhibition at 0.1 µM [2, 5]: 34%; inhibition at 0.01 µM [2, 5]: 14%
7 | C[C@]12C[C@H](c3ccc([N+](C)(C)[O-])cc3)[C@]34O[C@]35CCC(=O)C=C5CC[C@H]4[C@@H]1CC[C@@]2(O)C#CCl [Example 27, N-oxide of 11β-[4-(N,N-dimethylamino)-phenyl]-9α,10α-epoxy-21-chloro-19-nor-17α-Δ^4-pregnene-20-yne-17β-ol-3-one] |  |  | 0 |  |  |  | 
8 | C#C[C@]1(O)CC[C@H]2[C@@H]3CCC4=CC(=O)CCC4=C3[C@@H](c3ccc(N(C)C)cc3)C[C@@]21C [Example 32, 11β-[4-(N,N-dimethylamino)-phenyl]-17α-ethynyl-Δ^4,9-estradiene-17β-ol-3-one] |  |  | 0 |  |  |  | 
9 | CN(C)c1ccc([C@H]2C[C@@]3(C)[C@@H](CC[C@@]3(O)C#C[Si](C)(C)C)[C@@H]3CCC4=CC(=O)CCC4=C32)cc1 [Example 44, 11β-[4-(N,N-dimethylamino)-phenyl]-21-trimethylsilyl-19-nor-17α-Δ^4,9-pregnadiene-20-yne-17β-ol-3-one] |  |  | 0 |  |  |  | 

Now from value to molecule, other results behind:

Row | relative affinity of tieing (ARL), Estrogen ([1]; incubation 2 H at 0° C.) | relative affinity of tieing (ARL), Estrogen ([1]; incubation 5 H (25° C.)) | relative affinity of tieing (ARL), Estrogen [1, 4] | Structure (SMILES) | inhibition at 0.1 µM [2, 3] | inhibition at 0.01 µM [2, 3] | opposition to the effect of dexamethasone on tritiated uridine incorporation (in words) [2] | also measured
10 | < 0,1 | < 0,1 |  | CC#C[C@]1(O)CC[C@H]2[C@@H]3CCC4=CC(=O)[C@H](C)CC4=C3[C@@H](c3ccc(N(C)C)cc3)C[C@@]21C [5 (2α), 2α-methyl-11β-(4-dimethylaminophenyl)-17α-(prop-1-ynyl)-Δ^4,9-estradiene-17β-ol-3-one] | 57% | 19% |  | inhibition at 1 µM [2, 3]: 100%
11 | < 0,1 | < 0,1 |  | CC#C[C@]1(O)CC[C@H]2[C@@H]3CCC4=CC(=O)[C@@H](C)CC4=C3[C@@H](c3ccc(N(C)C)cc3)C[C@@]21C [5 (2β), 2-methyl-11β-(4-dimethylaminophenyl)-17α-(prop-1-ynyl)-Δ^4,9-estradiene-17β-ol-3-one] | 57% | 10% |  | % inhibition of effect of Dexamethasone (symbol) [2]: * (A dose of 10^-6 M inhibited the effect of dexamethasone totally)
12 | < 0,1 | < 0,1 |  | CC#C[C@]1(O)CC[C@H]2[C@@H]3CCC4=CC(=O)C(C)(C)CC4=C3[C@@H](c3ccc(N(C)C)cc3)C[C@@]21C [Example 1, 2,2-dimethyl-11β-(4-dimethylaminophenyl)-17α-(prop-1-ynyl)-Δ^4,9-estradiene-17β-ol-3-one] | 18% | 8% | opposed this effect | % inhibition of effect of Dexamethasone (symbol) [2]: * (A dose of 10^-6 M inhibited the effect of dexamethasone totally)
13 | < 0,1 | < 0,1 |  | CC#C[C@]1(O)CC[C@H]2[C@@H]3CCC4=CC(=O)C(C#N)(C#N)CC4=C3[C@@H](c3ccc(N(C)C)cc3)C[C@@]21C [Example 9, 2,2-dicyano-11β-(4-dimethylaminophenyl)-17α-(prop-1-ynyl)-Δ^4,9-estradiene-17β-ol-3-one] | 1% | 3% |  | inhibition at 1 µM [2, 3]: 2%
14 |  |  | 0 | CN(C)c1ccc([C@H]2C[C@@]3(C)[C@@H](CC[C@@]3(O)C#CCl)[C@@H]3CCC4=CC(=O)CCC4=C32)cc1 [Example 25, 11β-[4-(N,N-dimethylamino)-phenyl]-21-chloro-19-nor-17α-Δ^4,9-pregnadiene-20-yne-17β-ol-3-one] |  |  | opposed this effect | inhibition at 0.1 µM [2, 5]: 85%; inhibition at 0.01 µM [2, 5]: 57%; % of inhibition of effect of Dexamethasone (symbol) ([2]; second table): * (A dose of 10^-6 M inhibited totally the effect of dexamethasone)
